# Measured values reported in US9090701B2, “Methods of detecting oxidized calcium/calmodulin dependent protein kinase II” (University of Iowa Research Foundation, priority 2008, dated 2015).
# Key:
# oxCaMKII = test: Western blot of blood samples for oxidized CaMKII; type: in vivo, mice; settings: mice with cancer, N=1 per group
# Text: In order to test whether the anti-oxCaMKII antiserum was suitable for detecting increased CaMKII oxidation in blood under disease conditions associated with enhanced oxidative stress, validated mouse models were utilized. […] (See FIG. 15). Western blot of blood samples and ImageJ analysis were used to quantify total and oxidized CaMKII. (See FIG. 15). […] Mice were exposed to cancer cells and treated with either saline or 2DG. Those mice that tailed to develop tumors after 60 days were labeled as controls. (See FIG. 16). Western blot of blood samples and ImageJ analysis were used to quantify total and oxidized CaMKII. (See FIG. 16). […] (See FIG. 16). Mice were divided into four groups based on the presence or absence of cancer and whether or not they received treatment. Western blot of blood samples and ImageJ analysis were used to quantify total and oxidized CaMKII. (See FIG. 18). Both cancer and varied treatments increase blood oxCaMKII in an additive manner.
# CaMKIIδ [1] = target: T1, CaMKIIδ (Mus musculus, UniProt Q6PHZ2); type: biochemical
# Procedure: (§1) Mutant CaMKII cDNAs were generated using a QuikChange site-directed mutagenesis kit (Stratagene). CaMKIIδ (GenBank #NP_001020609) was generated using the Bac-to-Bac baculovirus system (Invitrogen) and purified on a calmodulin-agarose column. For CaMKII activity assays, purified CaMKII was pretreated with 200 μM CaCl2 and 1 μM CaM on ice for 1 minute. The protein was then exposed to ATP, H2O2, or water at the described concentrations for 10 minutes. Samples exposed to ATP or H2O2 were then treated with 10 mM EGTA for 10 minutes. CaMKII activity was measured as a function of ^32P-ATP incorporation into a synthetic substrate (syntide-2) at 30° C., as previously described (Wu e.g., 2002).
# (§2) CaMKII is activated by Ca^2+/CaM, but autophosphorylation at T287 sustains catalytic activity after dissociation of Ca^2+/CaM (FIG. 1A) because the negatively charged phosphate prevents reassociation of the catalytic domain and autoinhibitory region (Hudmon and Schulman, 2002). CaMKII activity may also be enhanced by pro-oxidant conditions (Zhu e.g., 2007); it therefore was hypothesized that oxidation of the regulatory domain in the vicinity of T287 could sustain CaMKII catalytic activity by an analogous mechanism.
# (§3) These mutants were exposed to H2O2 and assayed for activity in the presence of EGTA (FIG. 1C). […] While the paired methionine motif is conserved in the β, γ, and δ isoforms of CaMKII, the neuronal α isoform substitutes a cysteine residue for the first methionine of the pair (position 280 in CaMKIIα). The side chain of cysteine is also susceptible to oxidation. A M281C mutant of CaMKIIδ was generated to mimic the substitution in CaMKIIα. Additionally, CaMKIIα was generated and purified. […] To further elucidate the role of M281 and M282 in ROS-dependent activation, these sites were individually mutated. […]
# CaMKIIα = CaMKIIα (Homo sapiens, UniProt Q9UQM7)
# Procedure: as §1
# These mutants were exposed to H2O2 and assayed for activity in the presence of EGTA (FIG. 1C). […] While the paired methionine motif is conserved in the β, γ, and δ isoforms of CaMKII, the neuronal α isoform substitutes a cysteine residue for the first methionine of the pair (position 280 in CaMKIIα). The side chain of cysteine is also susceptible to oxidation. A M281C mutant of CaMKIIδ was generated to mimic the substitution in CaMKIIα. Additionally, CaMKIIα was generated and purified. […] To further elucidate the role of M281 and M282 in ROS-dependent activation, these sites were individually mutated.
# cardiomyocytes = test: Isolated cardiomyocyte TUNEL staining; type: cell-based, mouse
# Procedure: (§4) Myocyte isolations from neonatal mouse or rat pups were modified from previously described methods (Mohler e.g., 2007). To generate the primary cardiomyocyte cultures, hearts were dissected from P1 animals and placed in 1 mL of Ham's F-10. Atrial tissue was removed and the ventricular chambers were rinsed to remove any remaining blood. Hearts were transferred into 1.5 mL of 0.05% Trypsin, 200 μM EDTA in Ham's F-10 medium (Mediatech). Hearts were minced into approximately 20 small pieces using forceps and small scissors and incubated in the Trypsin/EDTA medium at 37° C. Following 15 min, the heart pieces were mixed by a Pasteur pipette and incubated for an additional 15 min. A mixture of 200 μL of soybean trypsin inhibitor (2 mg/mL; Worthington) and 200 μL of collagenase (0.2 mg/mL; 1980 units/mg; Sigma) was incubated with the cells for 35-50 min at 37° C. The cell suspension was pelleted, resuspended in “Complete Medium” (40% DMEM, 40% Ham's F-10, 20% FCS), and plated on plastic dishes. Following five hours, the non-adhered cells (cardiomyocytes) were aspirated from the plate, pelleted, resuspended in Complete Medium, and plated on Mattek tissue culture plates (fibronectin-coated; Roche). Cardiomyocytes were washed with Ham's F-10 and Medium was replaced with “Defined Medium” to prevent the growth of fibroblasts. 100× Defined Medium consists of 100 μg/mL insulin, 500 μg/mL transferrin, 100 nM LiCl, 100 nM NaSeO4, and 10 nM thyroxine. To ensure that pure populations of cardiomyocytes were obtained, cultures were immunolabeled with alpha-actinin Ig (cardiomyocyte-specific marker). Only cultures with >90% cardiomyocytes were used in experiments. (See FIG. 12.) Lentiviral treatments (shRNA, rescue constructs) and apoptosis inducing agents (Iso, AngII) were used for 24 hours. Cells were fixed in 4% paraformaldehyde, permeabilized in 0.1% Triton X-100 and sodium citrate, and stained using In Situ cell death detection kits, TMR Red (Roche). TUNEL stain assays were interpreted as previously described (Yang e.g., 2006). Nuclei were co-stained with DAPI. Investigators were blinded to the genetic identity and treatment of the mice in all studies.
# Cardiomyocytes from mice that express an inhibitory peptide against CaMKII (AC3-I, Zhang e.g., 2005) were treated with 100 nM AngII for 24 hours in parallel with isolated cardiomyocytes from WT and p47^−/− mice. […] Activity assays for caspase-3, a downstream target enzyme in the CaMKII apoptotic signaling pathway in heart, recapitulated the results from the TUNEL assay (FIG. 7A).
# Ca^2+/CaM/CaMKII complex = Ca^2+/CaM/CaMKII complex (Mus musculus, UniProt Q6PHZ2); type: binding
# Procedure: Spectra were collected at 30° C. using a Fluorolog 3 (Jobin Yvon, Horiba) spectrofluorometer. For intrinsic fluorescence shift experiments, excitation wavelength was 270 nm. Emission spectra were generated at Iran increments from 280 nm to 400 nm. Background traces were subtracted from CaMKII spectra to eliminate the contribution from intrinsic fluorescence of CaM. For fluorescence anisotropy experiments, baseline traces of 100 nM dansylated CaM in 15 mM HEPES buffer, pH 7.2 were measured at baseline and after the addition of 200 μM CaCl2 at 60 s. At 180 s, 100 nM purified CaMKII was added to the CaM solution. For some trials, CaMKII became phosphorylated by the addition of 10 mM ATP. 100 μM H2O2 or an equivalent volume of buffer was added at 250 s. Finally, addition of 10 mM EGTA at 300 s was used to remove free calcium from the solution, uncoupling CaM/CaMKII binding.
# CaMKIIδ [2] = target: T1, CaMKIIδ; settings: after Ca2+/CaM binding
# Procedure: It seemed possible that conditions capable of oxidizing methionine residues would also oxidize unprotected cysteine residues. […] In order to comprehensively test the potential role of all accessible cysteines in contributing to oxidation-dependent CaMKII activity, CaMKII activity responses to H2O2 in the presence of iodoacetic acid were measured. Iodoacetic acid is a reagent that blocks oxidation of unprotected cysteine residues (Zangerle e.g., 1992).
# CaMKIIδ [3] = type: biochemical; settings: for H2O2 (oxidation/ROS)-dependent activation of CaMKII mutant: exposed to H2O2, assayed in the presence of EGTA
# Procedure: as §1, §2, §3
# rat CaMKIIδ = test: CaMKIIδ shRNA knockdown and rescue in cultured neonatal cardiomyocytes; type: cell-based; settings: shRNA-treated cells; for Rescue of apoptotic response to AngII: 24 hours
# Procedure: as §4
# The CaMKIIδ-specific shRNA target sequence was selected based on the algorithm of Chalk, Wahlestedt, and Sonnhammer and others (Hammond e.g., 2000; Bernstein e.g., 2001; Brummelkamp e.g., 2002). […] Sense and anti-sense sequences were created and ligated into a modified pFIV lentiviral vector (SBI). For rescue experiments, full-length rat CaMKIIδ was cloned into pCDH1-MCS1-EF1-copOFP (SBI) and completely sequenced. The resulting construct was then modified to be shRNA resistant by engineering conserved residue wobble base changes at four positions in the template (CTG[A]-GCT[C]-ACG[A]-AGA[G] (SEQ ID NO:7))→LATR to LATR. […]
# CaMKIIδ [4] = target: T2, CaMKIIδ (Mus musculus, UniProt Q6PHZ2, M281V); type: biochemical; settings: single point mutation, H2O2
# T2 construct: CaMKIIδ (GenBank #NP_001020609) was generated using the Bac-to-Bac baculovirus system; made in house; host or cells: Bac-to-Bac baculovirus system (Invitrogen)
# Procedure: as §1, §2, §3
# CaMKIIδ [5] = target: T3, CaMKIIδ (Mus musculus, UniProt Q6PHZ2, T287A); type: biochemical; settings: in the presence of ATP
# T3 construct: CaMKIIδ (GenBank #NP_001020609) was generated using the Bac-to-Bac baculovirus system; made in house; host or cells: Bac-to-Bac baculovirus system (Invitrogen)
# Procedure: as §1, §2, §3
# T1 sequence (Q6PHZ2 2-499): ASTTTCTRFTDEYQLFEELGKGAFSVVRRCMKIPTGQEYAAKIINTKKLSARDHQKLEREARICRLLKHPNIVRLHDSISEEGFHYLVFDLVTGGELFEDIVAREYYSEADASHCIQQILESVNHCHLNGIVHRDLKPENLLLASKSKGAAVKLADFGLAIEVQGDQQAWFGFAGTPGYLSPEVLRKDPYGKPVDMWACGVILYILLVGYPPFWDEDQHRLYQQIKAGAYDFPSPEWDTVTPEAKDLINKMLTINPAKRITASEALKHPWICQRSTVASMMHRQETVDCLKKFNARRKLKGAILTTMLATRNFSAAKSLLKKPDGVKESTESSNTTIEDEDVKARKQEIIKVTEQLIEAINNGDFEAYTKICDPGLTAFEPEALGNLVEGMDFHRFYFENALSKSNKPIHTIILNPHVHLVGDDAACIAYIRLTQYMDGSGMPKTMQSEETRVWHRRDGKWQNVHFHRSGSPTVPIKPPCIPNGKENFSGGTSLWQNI
# T2 sequence (Q6PHZ2 2-499 M281V): as the sequence (Q6PHZ2 2-499) above, with M280V counted along it
# T3 sequence (Q6PHZ2 2-499 T287A): as the sequence (Q6PHZ2 2-499) above, with T286A counted along it
# CaMKIIα, sequence (Q9UQM7 whole entry): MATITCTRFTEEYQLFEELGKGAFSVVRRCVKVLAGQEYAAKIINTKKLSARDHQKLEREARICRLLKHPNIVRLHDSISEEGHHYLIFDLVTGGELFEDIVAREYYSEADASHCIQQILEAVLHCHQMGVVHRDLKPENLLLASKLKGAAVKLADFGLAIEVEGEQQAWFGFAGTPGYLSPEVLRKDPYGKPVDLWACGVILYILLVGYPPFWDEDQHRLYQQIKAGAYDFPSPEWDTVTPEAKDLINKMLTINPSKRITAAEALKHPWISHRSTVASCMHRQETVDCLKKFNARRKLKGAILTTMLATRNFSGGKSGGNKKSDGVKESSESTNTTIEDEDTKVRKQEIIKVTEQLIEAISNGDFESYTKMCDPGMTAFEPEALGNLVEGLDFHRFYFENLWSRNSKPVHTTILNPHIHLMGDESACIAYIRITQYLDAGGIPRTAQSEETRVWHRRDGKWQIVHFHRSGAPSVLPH
compound,measurement,setting,value
O=CC[C@@H](O)[C@H](O)[C@H](O)CO [2-deoxyglucose],Oxidized CaMKII in blood,oxCaMKII,markedly increased oxidized CaMKII
"OO [H2O2, hydrogen peroxide]",Dose dependence of activation of wild type CaMKII by H2O2,CaMKIIδ [1]; WT CaMKII,close-dependent
same,CaMKII activation by H2O2,"CaMKIIδ [1]; after pretreatment with Ca2+/CaM, in the presence of EGTA",persistent CaMKII activation
same,CaMKII activity after exposure to H2O2,"CaMKIIδ [1]; purified CaMKII, absence of any pre-treatment",no discernable CaMKII activity
same,Activation of purified CaMKIIα by H2O2,CaMKIIα,activated
same,Apoptotic effect,cardiomyocytes; AC3-I cells compared to WT or p47−/− cells,blunted by more than half
same,Apoptosis,cardiomyocytes; p47−/− cells,caused significant apoptosis
same,CaM trapping,Ca^2+/CaM/CaMKII complex; CaMKII exposure to H2O2 for 10 min,failed to induce CaM trapping
same,Dissociation kinetics of Ca2+/CaM from autophosphorylated CaMKII,Ca^2+/CaM/CaMKII complex; pretreatment with H2O2 prior to EGTA,no significant effect
O=C(O)CI [iodoacetic acid],H2O2 activity responses of cysteine protected CaMKIIδ,"CaMKIIδ [1]; pretreated with 10 mM iodoacetic acid, vs CaMKIIδ without",equivalent H2O2 activity responses
same,Accessibility of cysteine residues to biochemical modification,CaMKIIδ [2],blocked the accessibility of cysteine residues
C290V: CaMKII mutant of the regulatory domain cysteine,Ca2+/CaM-dependent activation,CaMKIIδ [3],indistinguishable from WT CaMKII
same,H2O2 (oxidation/ROS)-dependent activation of CaMKII mutant,CaMKIIδ [3],indistinguishable from WT CaMKII
M281/282V,H2O2 (oxidation/ROS)-dependent activation of CaMKII mutant,CaMKIIδ [3],completely abolished
same,Rescue of apoptotic response to Iso,rat CaMKIIδ,rescued the apoptotic response to Iso
same,Rescue of apoptotic response to AngII,rat CaMKIIδ,failed to rescue the apoptotic response to AngII
M281C: M281C mutant of CaMKIIδ generated to mimic the substitution in CaMKIIα,H2O2 (oxidation/ROS)-dependent activation of CaMKII mutant,CaMKIIδ [3],activated by H2O2
M281V: CaMKII single point mutant M281V,Reduction of oxidation-dependent activation,CaMKIIδ [4],65%
M282V: CaMKII single point mutant M282V,H2O2 (oxidation/ROS)-dependent activation of CaMKII mutant,CaMKIIδ [3],completely ablated
T287A: CaMKII bearing a T287A substitution,Autophosphorylation (ATP)-dependent Ca2+-independent activity,CaMKIIδ [5],did not maintain persistent Ca^2+-independent activity
same,Ca2+/CaM-dependent activation,CaMKIIδ [3],normal Ca^2+/CaM-dependent activation
same,H2O2 (oxidation/ROS)-dependent activation of CaMKII mutant,CaMKIIδ [3],activated by H2O2
WT CaMKII: shRNA-resistant wild type rat CaMKIIδ rescue construct expressed by lentivirus,Rescue of apoptotic response to Iso,rat CaMKIIδ,fully rescued
same,Rescue of apoptotic response to AngII,rat CaMKIIδ,fully rescued
